What was measured:
[1] = test system: E. coli pCSS123/JM103 cells; assay: Light production by cells with runaway-replication plasmid pCSS123; format: cell-based, Escherichia coli; details: 20 min at 30° C., 42° C. one hour, IPTG 1 mM; FIG. 9a
Experimental: E. coli pCSS123/JM103 cells grown overnight were diluted 1:1000. Diluted cells in 2×TY were taken (0.5 ml) and various amounts of antibiotics or other toxic substances were added. These solutions were incubated 20 min at 30° C. After this the samples were transferred to 42° C. for one hour. Each tube was thereafter incubated at 30° C. in a waterbath and IPTG was added to 1 mM and n-decanal to 0.01%. The tubes were transferred to an automated light-gathering device, i.e., luminometer 1251 (LKB-Wallac, Turku, Finland) whose measuring chamber had been equilibrated to 30° C. Measurement of light emission by the cells was done with the auto-mode program so that each tube was automatically measured every two minutes. Data were collected in the memory of the computer for later analyses. […] For clarity reasons only two concentrations of chloramphenicol were compared to the untreated control.

[2] = test system: E. coli pCSS123/JM103 cells; assay: Change in plasmid copy number: total DNA from heat-treated cells, agarose gel; format: cell-based, Escherichia coli; details: 42° C. for one hour; tested at 0, 1, 10 and 100 μg/ml; FIG. 8
Experimental: The plasmid pCSS123 described in the instant invention is a runaway-replication plasmid, in which a change in copy number can be obtained by shifting the temperature (FIG. 8). The effect of nalidixic acid, an agent known to inhibit DNA replication of cell DNA and especially of plasmid pCSS123 DNA, is shown in FIG. 8.
E. coli pCSS123/JM103 cells were cultivated in 20 ml of 2×TY at 30° C. in four Erlenmeyer bottles until the absorbance measured at 600 nm was 0.3. Nalidixic acid, a known inhibitor of DNA replication, was added to a final concentration of 0, 1, 10 and 100 μg/ml. Parallel samples of 1.5 ml from each bottle were immediately withdrawn to 15 ml tubes and kept at 30° C. for 20 min. The tubes were transferred to 42° C. for one hour and the bottles were left at 30° C. After one hour, both the tubes and the bottles were kept for an additional hour at 30° C. in a shaker. Total-DNA was extracted from 1.5 ml of culture.
Cells were centrifuged and the pellets were suspended in 500 μl 50 mM TRIS-HC1, pH 8.0, 50 mM EDTA. Cells were kept in an ice bath for 30 min and 50 μl of lysozyme (10 mg/ml) was added and kept in an ice bath for 45 min. One hundred μl of STEP solution (0.5% SDS, 50 mM TRIS-HC1, pH 7.5, 0.4 M EDTA) was added and kept at 50° C. for 60 min. After this, 600 μl of phenol was added and the tubes were gently mixed for 5 min and centrifuged 10 min at 12000×g. […]

[3] = test system: E. coli pCSS112/K-12 HI trp(c1857); assay: Light production, bacterial luciferase under PL promoter (pCSS112); format: cell-based, Escherichia coli; details: concentration in the measuring cuvette; 20 min at 30° C., 42° C. for 10 minutes
Experimental: A comparison is made between plasmids where the expression of bacterial luciferase genes are controlled by either lac (slow) or PL promoter (fast) promoters. E. coli clone pCSS112/K-12 HI trp(c1857) was grown overnight in 2×TY medium containing ampicillin 100 μg/ml. After this a suitable dilution was made in HBSS-buffer or in milk and 500 μl of this was added to 3 ml luminometer tubes. The tubes were equilibrated to 30° C. and different amounts of various toxic substances were added to tubes. Tubes were kept at 30° C. for 20 min, after which the temperature was shifted to 42° C. for 10 minutes. Thereafter the tubes were removed to luminometer chamber which had been equilibrated to 30° C. for automated measurement. As a comparison, an E. coli JM103 clone containing plasmid pCSS108 was used as a control. The control cells were treated similarly but without the heat-shock step. Messanger RNA and protein synthesis were induced in the control cells by adding IPTG to 1 mM. […] In case of chloramphenicol, the kinetics of light production have been shown in FIG. 11a when plasmid pCSS112 in E. coli K-12 HI trp(c1857) strain is used.
The following examples show detection of substances affecting other biosynthetic routes and metabolism of cells. […]
The following figures show the effect of each tested substance as measured by light production. […]

E. coli pCSS123/BW322 = details: heat induced at 42° C. for 25 minutes; FIG. 9d
Experimental: Freeze-dried E. coli pCSS123/BW322 were reconstituted with 1.0 ml of 2×TY and 45 μl of this was diluted 1:10 with 2×TY. Five μl of trimethoprim dilutions were added and kept at room temperature for 25 minutes. Cells were heat induced at 42° C. for 25 minutes and equilibrated to 30° C. in a water bath for 10 minutes. n-decanal was added to 0.001% and light production was measured using a LKB-Wallac 1250 manual luminometer. Same concentrations of trimethoprim together with reconstituted, freeze-dried cells which were not heat-treated acted as controls.

metallothioneins = details: cadmium added to growth medium to 4×10^−6 molar; eucaryotic cells; cited from earlier work
B. subtilis 1A40 cells = assay: Light emission, click beetle luciferase (pCSS962), IPTG induced; format: cell-based, Bacillus subtilis; details: incubation 2 hours at 30° C.; FIG. 11b
Experimental: Using this construction, the production of luciferase can be turned on in B. subtilis by simple addition of IPTG, which binds to the lac repressor coded by the helper plasmid pBL1 present in the same cell. After IPTG binds to the repressor, the repressor cannot bind to the DNA region between phage T5 promoter and the luciferase gene thus allowing the expression of luciferase. Cells containing both plasmids were cultured overnight in 2×TY containing erythromycin (10 μg/ml, to keep pBL1 in the cell) and kanamycin (10 μg/ml, to keep pCSS952 in the cell). A suitable dilution was made and different amounts of antibiotic were added to the cells. After an incubation period of 2 hours at 30° C., the tubes were measured for light emission after addition of 1 mM D-luciferin substrate in 0.1 M Na-citrate. As shown in FIG. 11b a low amount of 0.1 ug/ml ampicillin and even lower amounts of oxytetracyclin and streptomycin can be detected.

CCn1cc(C(=O)O)c(=O)c2ccc(C)nc21 [nalidixic acid]
amount that can be detected very quickly by light emission [1]: 2 µg
amount of nalidixic acid in whose presence DNA content was unaffected (no heat-induced increase of plasmid DNA) [2]: ≥ 1 µg

O=C(N[C@H](CO)[C@H](O)c1ccc([N+](=O)[O-])cc1)C(Cl)Cl [chloramphenicol]
lowest concentration giving differences in measured activity (light production) from the start of measurement [3]: 0.1 µg/mL

COc1cc(Cc2cnc(N)nc2N)cc(OC)c1OC [trimethoprim]
sensitivity of detection by light production (E. coli pCSS123/BW322): sensitivity of the assay is very high

[Cd] [cadmium]
increase in the production of metallothioneins (metallothioneins): over fifty

CC1(C)S[C@@H]2[C@H](NC(=O)[C@H](N)c3ccccc3)C(=O)N2[C@H]1C(=O)O [ampicillin]
amount that can be detected by light emission (B. subtilis 1A40 cells): 0.1 µg/mL

— US6475719B1, “Determination of factors affecting gene regulation and/or gene replication” (priority 1989, dated 2002)
